Experimental data: PubChem BioAssay AID1919005 (Molecular Pharmacology Branch, DTP, NCI, 2023)
pIC50: −log10 of the molar value.

Test system: 855422-203-R-J1-PDC complex spheroid growth
Experiment: Anticancer human tumor 855422-203-R-J1-PDC patient-derived bladder carcinoma cell line growth inhibition [AhR]
Conditions: for pIC50: curve of first compound; for viability, T/C: stronger effect = lower value
Text: Multicellular complex tumor spheroid response to aryl hydrocarbon receptor antagonists in combination with a variety of drugs and investigational agents in selected tumor cell lines
The current study was undertaken to assess response to aryl hydrocarbon receptor antagonists in combination with standard-of-care drugs and investigational agents in solid tumor complex spheroid models. Complex spheroids include a stromal component modeled by human endothelial cells (HUVEC) and fibroblasts modeled by human mesenchymal stem cells (MSCs). The concentration ranges selected for each drug and investigational agent were based upon clinically achievable concentrations if the clinical Cmax of the agent was known.
Compounds. The drugs and investigational agents: BAY 2416964 (NSC825713), GNF351 (NSC835774), CH-223191 (NSC835775), CPI-455 (NSC825282), aza-TdCyd (NSC777586), decitabine (NSC127716), belinostat (NSC758774), entinostat (NSC756642), pevonedistat (NSC761192), tazemetostat (NSC777109), talazoparib (NSC765396), olaparib (NSC753686), selinexor (NSC780203), nedisertib (M3814, NSC802822), bortezomib (NSC756655), venetoclax (NSC766270), doxorubicin (NSC123127), elimusertib (BAY189344, NSC800525), ceralasertib (AZD6738, NSC777638), TAK-243 (NSC785004), alisertib (NSC759677), etoposide (NSC141540), topotecan (NSC609699), eribulin (NSC707389), gemcitabine (NSC613327), carboplatin (NSC241240), cisplatin (NSC119875), and SN-38 (NSC673596) were obtained from the National Cancer Institute (NCI) Developmental Therapeutics Program Chemical Repository (32). The FDA-approved anticancer drug set is available from the Developmental Therapeutics Program at https://dtp.cancer.gov/organization/dscb/obtaining/available plates.htm. […] The stock solutions were prepared in dimethyl sulfoxide (DMSO, Sigma-Aldrich, St. Louis, MO, cat. D2650), except for the platinum compounds which were prepared in saline (Quality Biological, Gaithersburg, MD, cat. 114-055-101), at 800-fold the tested concentration and stored at -70 degrees C prior to their use. All drugs and investigational agents were tested over a range starting from a high concentration at or near the clinical Cmax and decreasing in half-log increments. If the clinical Cmax for an agent had not been determined, the highest concentration tested was 10 microM (Table 1).
Cell Culture. All cells were maintained in an incubator at 37 degrees C and 5% CO2 with 95% humidity. The PDC lines were cultured according to standard operating procedures established by the NCI PDMR (https://pdmr.cancer.gov). Briefly, all PDCs were thawed and cultured in Matrigel-coated flasks prepared with a working solution of 1X Ham's F-12 nutrient mix, without supplementation (Invitrogen, Waltham, MA, cat. 11765054), 100 U/mL penicillin-streptomycin (Invitrogen, cat. 15140122), and 2.5% Matrigel (Corning Inc., Corning, NY, cat. 354248) for the first three passages. All PDCs were cultured in complete DMEM/F-12 media containing advanced DMEM/F-12 (Invitrogen, cat. 12634028), 4.9% defined fetal bovine serum, heat inactivated (HyClone Laboratories Inc., Logan, UT, cat. SH30070.03HI), 389 ng/mL hydrocortisone (Sigma-Aldrich, cat. H4001), 9.7 ng/mL human EGF recombinant protein (Invitrogen, cat. PHG0313), 23.4 microg/mL adenine (Sigma-Aldrich, cat. A2786), 97.3 U/mL penicillin-streptomycin (Invitrogen, cat. 15140122), 1.9 mM L-glutamine (Invitrogen, cat. 25030081), and 9.7 microM Y-27632 dihydrochloride (Tocris Bioscience, Bristol, United Kingdom, cat. 1254). The PDCs were cultured in complete DMEM/F12 media without 10 microM Y-27632 dihydrochloride for at least two passages prior to the screen. The established cell lines NCI-H1341 and […] were cultured in DMEM/F-12, HEPES (Invitrogen, cat. 11330032), 5% defined fetal bovine serum (HyClone Laboratories Inc., cat. SH30070.03), ITS premix universal culture supplement [insulin (5 microg/mL), transferrin (5 microg/mL), and selenious acid (5 ng/mL)] […]
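Further: spheroids exposed to agents for seven days before readout.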
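Wherever viability, T/C is given: percent of DMSO vehicle control luminescence viability.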

Compound: Nc1ccn(C2OC(CO)C(O)C2(F)F)c(=O)n1 (stereo not given) + Cc1ccccc1N=Nc1ccc(NC(=O)c2ccnn2C)c(C)c1
- pIC50 (second compound 0.1 µM): 6.58
- pIC50 (second compound 0.316 µM): 6.53
- pIC50 (second compound 1 µM): 6.61
- pIC50 (second compound 3.16 µM): 6.78
- pIC50 (second compound 10 µM): 7.14
- viability, T/C (second compound 0.1 µM, first compound 0.0316 µM): 120%
- viability, T/C (second compound 0.1 µM, first compound 0.1 µM): 96.4%
- viability, T/C (second compound 0.1 µM, first compound 0.316 µM): 40.4%
- viability, T/C (second compound 0.1 µM, first compound 1 µM): 29.2%
- viability, T/C (second compound 0.1 µM, first compound 3.16 µM): 25.9%
- viability, T/C (second compound 0.1 µM, first compound 10 µM): 16.5%
- viability, T/C (second compound 0.316 µM, first compound 0.0316 µM): 113%
- viability, T/C (second compound 0.316 µM, first compound 0.1 µM): 89.3%
- viability, T/C (second compound 0.316 µM, first compound 0.316 µM): 46.5%
- viability, T/C (second compound 0.316 µM, first compound 1 µM): 28.2%
- viability, T/C (second compound 0.316 µM, first compound 3.16 µM): 23.4%
- viability, T/C (second compound 0.316 µM, first compound 10 µM): 20.7%
- viability, T/C (second compound 1 µM, first compound 0.0316 µM): 109%
- viability, T/C (second compound 1 µM, first compound 0.1 µM): 84.5%
- viability, T/C (second compound 1 µM, first compound 0.316 µM): 39.2%
- viability, T/C (second compound 1 µM, first compound 1 µM): 30.1%
- viability, T/C (second compound 1 µM, first compound 3.16 µM): 23.8%
- viability, T/C (second compound 1 µM, first compound 10 µM): 19.1%
- viability, T/C (second compound 3.16 µM, first compound 0.0316 µM): 84.5%
- viability, T/C (second compound 3.16 µM, first compound 0.1 µM): 63.3%
- viability, T/C (second compound 3.16 µM, first compound 0.316 µM): 31.9%
- viability, T/C (second compound 3.16 µM, first compound 1 µM): 29.6%
- viability, T/C (second compound 3.16 µM, first compound 3.16 µM): 22.3%
- viability, T/C (second compound 3.16 µM, first compound 10 µM): 17.1%
- viability, T/C (second compound 10 µM, first compound 0.0316 µM): 64%
- viability, T/C (second compound 10 µM, first compound 0.1 µM): 45.8%
- viability, T/C (second compound 10 µM, first compound 0.316 µM): 29.6%
- viability, T/C (second compound 10 µM, first compound 1 µM): 27.7%
- viability, T/C (second compound 10 µM, first compound 3.16 µM): 22.1%
- viability, T/C (second compound 10 µM, first compound 10 µM): 18%

Compound: CCN(c1cc(-c2ccc(CN3CCOCC3)cc2)cc(C(=O)NCc2c(C)cc(C)[nH]c2=O)c1C)C1CCOCC1 + CC(CO)NC(=O)c1cc(-c2ccc(Cl)cc2)nn(-c2cnn(C)c2)c1=O
- pIC50 (second compound 0.1 µM): < 5.52
- pIC50 (second compound 0.316 µM): < 5.52
- pIC50 (second compound 1 µM): < 5.52
- pIC50 (second compound 3.16 µM): < 5.52
- pIC50 (second compound 10 µM): < 5.52
- viability, T/C (second compound 0.1 µM, first compound 0.00949 µM): 94.1%
- viability, T/C (second compound 0.1 µM, first compound 0.03 µM): 102%
- viability, T/C (second compound 0.1 µM, first compound 0.0949 µM): 94.3%
- viability, T/C (second compound 0.1 µM, first compound 0.3 µM): 95.7%
- viability, T/C (second compound 0.1 µM, first compound 0.949 µM): 86.2%
- viability, T/C (second compound 0.1 µM, first compound 3 µM): 88.5%
- viability, T/C (second compound 0.316 µM, first compound 0.00949 µM): 112%
- viability, T/C (second compound 0.316 µM, first compound 0.03 µM): 109%
- viability, T/C (second compound 0.316 µM, first compound 0.0949 µM): 100%
- viability, T/C (second compound 0.316 µM, first compound 0.3 µM): 95.5%
- viability, T/C (second compound 0.316 µM, first compound 0.949 µM): 92.1%
- viability, T/C (second compound 0.316 µM, first compound 3 µM): 92.6%
- viability, T/C (second compound 1 µM, first compound 0.00949 µM): 100%
- viability, T/C (second compound 1 µM, first compound 0.03 µM): 105%
- viability, T/C (second compound 1 µM, first compound 0.0949 µM): 114%
- viability, T/C (second compound 1 µM, first compound 0.3 µM): 94.5%
- viability, T/C (second compound 1 µM, first compound 0.949 µM): 91.9%
- viability, T/C (second compound 1 µM, first compound 3 µM): 88.8%
- viability, T/C (second compound 3.16 µM, first compound 0.00949 µM): 98.6%
- viability, T/C (second compound 3.16 µM, first compound 0.03 µM): 95.2%
- viability, T/C (second compound 3.16 µM, first compound 0.0949 µM): 103%
- viability, T/C (second compound 3.16 µM, first compound 0.3 µM): 94.1%
- viability, T/C (second compound 3.16 µM, first compound 0.949 µM): 86%
- viability, T/C (second compound 3.16 µM, first compound 3 µM): 77.4%
- viability, T/C (second compound 10 µM, first compound 0.00949 µM): 96.5%
- viability, T/C (second compound 10 µM, first compound 0.03 µM): 102%
- viability, T/C (second compound 10 µM, first compound 0.0949 µM): 83.5%
- viability, T/C (second compound 10 µM, first compound 0.3 µM): 92.8%
- viability, T/C (second compound 10 µM, first compound 0.949 µM): 103%
- viability, T/C (second compound 10 µM, first compound 3 µM): 80.7%
